In PMC7279038, “Antioxidant and Neuroprotective Effects Induced by Cannabidiol and Cannabigerol in Rat CTX-TNA2 Astrocytes and Isolated Cortexes” (International Journal of Molecular Sciences, 2020):

Columns and labels:
[1] = tested on: CTX-TNA2 astrocyte cell line; experiment: ROS production by flow cytometry; assay type: cell-based, rat; details: challenged with 300 µM H2O2; 1000 nM CBD, 1 nM CBG; 24 and 48 h
Procedure: The CTX-TNA2 rat astrocytes were purchased from the European Collection of Cell Cultures (ECACC), Sigma-Aldrich, Milan, Italy, and cultured as already indicated. Cells were grown in Dulbecco’s Modified Eagle Medium supplemented with 10% of FBS and penicillin–streptomycin (100 µgmL^−1) (all from EuroClone SpA Life-Sciences-Division, Milan, Italy) and maintained in a humified atmosphere of 5% CO2 at 37 °C. Cells were subcultivated at a ratio of 1.2 to 1.8 and the medium was changed every 3 days. CTX-TNA2 astrocytes were plated in 25 or 75 cm^2 flasks, according to experimental needing and cells between the eight and the 15 passage were used.
When indicated, the cells were treated with H2O2 300 µM for three hours and different concentrations of CBD (1–1000 nM) and CBG (1–1000 nM). […]
Reactive oxygen species (ROS) production was determined as already reported by monitoring by flow cytometry the increase in green fluorescence after labeling the cells (5 × 10^5) with 5 μmolL^−1 of 5-(and-6)-chloromethyl-2′,7′-dichlorodihydrofluorescein diacetate, acetyl ester (CM-H2DCFDA, Molecular Probes, Invitrogen, Life-Sciences-Division, Milano, Italy) for 40 min followed by 20 min of recovery at 37 °C. The increase in green fluorescence, indicating the production of ROS, was detected by a Cytoflex flow cytometer with an FL1 detector in a log mode (Beckmann Coulter, FL, USA). […]

[2] = tested on: calcium/calmodulin-dependent protein kinase type II subunit alpha (CAMK2A); experiment: Untargeted proteomic analysis of cortexes, CAMK2A; design: species or system rat; details: CBD 1000 nM, CBG 1 nM
Procedure: Sprague–Dawley rats (200–250 g) were sacrificed by CO2 inhalation (Italian Health Ministry authorization N. F4738.N.XTQ, delivered on 11th November 2018) and isolated prefrontal cortex specimens were immediately explanted and incubated in thermostatic shaking bath at 37 °C for 1 h (incubation period), in Krebs–Ringer buffer at the following K^+ concentrations:
Cortexes were stimulated with CBD (1000 nM) and CBD (1 nM). Afterwards, specimens were homogenized in perchloric acid solution (0.05 M) for the extraction and quantification of nitrites, via the aforementioned colorimetric Griess assay, and serotonin (5-HT), 5-hydroxyindoleacetic (5HIIA),3-hydroxykinurenine (3-HK) and kinurenic acid (KA) (ng/mg wet tissue) via high performance liquid chromatography analysis. Additionally, an untargeted proteomic analysis was carried out on the cortex homogenate. The analytical protocols for 5-HT, 5HIIA, 3-HK, KA and protein level determinations are described below. […]
After protein quantification, a volume corresponding to 50 μg of proteins was loaded onto a Nanosep 10-kDa-cutoff filter (Pall Corporation, Michigan, USA) and digested according to the protocol we routinely use in our laboratory, adapted from Distler et al. Briefly, the sample was washed twice with 200 μL urea buffer (8M urea, 100 mM Tris pH 8.5 in milliQ water) to remove the detergents present in the lysis buffer. […]

Structure (SMILES) | ROS production [1] | effect on K+ 60 mM-induced reduction in CAMK2A level [2]
C=C(C)[C@@H]1CCC(C)=C[C@H]1c1c(O)cc(CCCCC)cc1O [CBD, Cannabidiol] | reduction in ROS production | blocking the downregulation
CCCCCc1cc(O)c(C/C=C(\C)CCC=C(C)C)c(O)c1 [CBG, cannabigerol] | reduction in ROS production | completely ineffective
